Assays:
Test in all cases: cells
[1] = tested on: Detroit 562; format: functional, cell-based, Homo sapiens; settings: Homo sapiens, Detroit 562;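 note: growth inhibition of human Detroit 562 cells, read out by a cell viability assay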
Description: SANGER: Inhibition of human Detroit562 cell growth in a cell viability assay.

[2] = tested on: IA-LM; format: functional, cell-based, Homo sapiens; settings: Homo sapiens, IA-LM;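 note: cell viability assay measuring growth inhibition of human IA-LM cells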
Description: SANGER: Inhibition of human IA-LM cell growth in a cell viability assay.

[3] = tested on: LXF-289 cell line; format: functional, cell-based, Homo sapiens; settings: Homo sapiens, LXF-289
Description: SANGER: Inhibition of human LXF-289 cell growth in a cell viability assay.

[4] = tested on: NCI-H2126; format: functional, cell-based, Homo sapiens; settings: Homo sapiens, NCI-H2126;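 note: growth inhibition of the cancer cell line, determined with a cell viability readout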
Description: SANGER: Inhibition of human NCI-H2126 cell growth in a cell viability assay.

[5] = tested on: M059J; format: functional, cell-based, Homo sapiens; settings: Homo sapiens, M059J;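 note: growth inhibition of M059J cells, read out with a cell viability assay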
Description: SANGER: Inhibition of human M059J cell growth in a cell viability assay.

[6] = tested on: MFE-280; format: functional, cell-based, Homo sapiens; settings: Homo sapiens, MFE-280;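 note: growth inhibition of MFE-280 cells, determined with a cell viability readout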
Description: SANGER: Inhibition of human MFE-280 cell growth in a cell viability assay.

[7] = tested on: HCC1419; format: functional, cell-based, Homo sapiens; settings: Homo sapiens, HCC1419;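 note: growth inhibition of human HCC1419 cells, read out as cell viability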
Description: SANGER: Inhibition of human HCC1419 cell growth in a cell viability assay.

[8] = tested on: GCT; format: functional, cell-based, Homo sapiens; settings: Homo sapiens, GCT;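 note: GCT cell line proliferation inhibition, read out with a cell viability assay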
Description: SANGER: Inhibition of human GCT cell growth in a cell viability assay.

[9] = tested on: NCI-H2030; format: functional, cell-based, Homo sapiens; settings: Homo sapiens, NCI-H2030;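 note: growth inhibition of human NCI-H2030 cells, read out by a cell viability assay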
Description: SANGER: Inhibition of human NCI-H2030 cell growth in a cell viability assay.

[10] = tested on: TGBC24TKB; format: functional, cell-based, Homo sapiens; settings: Homo sapiens, TGBC24TKB;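 note: growth inhibition of human TGBC24TKB cells, read out with a cell viability assay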
Description: SANGER: Inhibition of human TGBC24TKB cell growth in a cell viability assay.

[11] = tested on: HTC-C3; format: functional, cell-based, Homo sapiens; settings: Homo sapiens, HTC-C3;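 note: inhibition of cell growth, read out with a cell viability assay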
Description: SANGER: Inhibition of human HTC-C3 cell growth in a cell viability assay.

[12] = tested on: A4-Fuk; format: functional, cell-based; settings: Homo sapiens;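 note: growth inhibition of A4-Fuk cells, read out by a cell viability assay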
Description: SANGER: Inhibition of human A4-Fuk cell growth in a cell viability assay.

[13] = tested on: A204; format: functional, cell-based, Homo sapiens; settings: Homo sapiens, A204;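 note: growth inhibition of human A204 cells, read out with a cell viability assay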
Description: SANGER: Inhibition of human A204 cell growth in a cell viability assay.

[14] = tested on: CAL-51; format: functional, cell-based, Homo sapiens; settings: Homo sapiens, CAL-51;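 note: human CAL-51 cell line, growth inhibition read out via a cell viability assay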
Description: SANGER: Inhibition of human CAL-51 cell growth in a cell viability assay.

[15] = tested on: FTC-133; format: functional, cell-based, Homo sapiens; settings: Homo sapiens, FTC-133
[16] = tested on: Ca-Ski; format: functional, cell-based; settings: Homo sapiens;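 note: cell viability assay measuring inhibition of Ca-Ski cell growth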
Description: SANGER: Inhibition of human Ca-Ski cell growth in a cell viability assay.

[17] = tested on: PANC-08-13; format: functional, cell-based, Homo sapiens; settings: Homo sapiens, PANC-08-13;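 note: cell growth inhibition, measured with a cell viability assay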
Description: SANGER: Inhibition of human PANC-08-13 cell growth in a cell viability assay.

[18] = tested on: HT; format: functional, cell-based; settings: Homo sapiens
Description: SANGER: Inhibition of human HT cell growth in a cell viability assay.

[19] = tested on: PFSK-1; format: functional, cell-based, Homo sapiens; settings: Homo sapiens, PFSK-1;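 note: cell viability assay measuring how strongly compounds suppress growth of human PFSK-1 cells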
Description: SANGER: Inhibition of human PFSK-1 cell growth in a cell viability assay.

[20] = tested on: NCI-H526; format: functional, cell-based; settings: Homo sapiens;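 note: growth inhibition of the human NCI-H526 cell line, measured by a cell viability assay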
Description: SANGER: Inhibition of human NCI-H526 cell growth in a cell viability assay.

[21] = tested on: K5; format: functional, cell-based, Homo sapiens; settings: Homo sapiens, K5
Description: SANGER: Inhibition of human K5 cell growth in a cell viability assay.

[22] = tested on: NCI-H1623; format: functional, cell-based, Homo sapiens; settings: Homo sapiens, NCI-H1623;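 note: cell viability assay used as the read-out for growth inhibition of NCI-H1623 cells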
Description: SANGER: Inhibition of human NCI-H1623 cell growth in a cell viability assay.

[23] = tested on: NCI-H747; format: functional, cell-based; settings: Homo sapiens;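 note: growth inhibition of human NCI-H747 cells, read out by a cell viability assay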
Description: SANGER: Inhibition of human NCI-H747 cell growth in a cell viability assay.

[24] = tested on: KYSE-510; format: functional, cell-based, Homo sapiens; settings: Homo sapiens, KYSE-510;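 note: cell viability readout used to measure how strongly growth of the cell line is suppressed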
Description: SANGER: Inhibition of human KYSE-510 cell growth in a cell viability assay.

[25] = tested on: DB; format: functional, cell-based; settings: Homo sapiens
Description: SANGER: Inhibition of human DB cell growth in a cell viability assay.

[26] = tested on: KMOE-2; format: functional, cell-based; settings: Homo sapiens;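 note: growth inhibition of human KMOE-2 cells, read out with a cell viability assay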
Description: SANGER: Inhibition of human KMOE-2 cell growth in a cell viability assay.

[27] = tested on: MHH-ES-1; format: functional, cell-based, Homo sapiens; settings: Homo sapiens, MHH-ES-1;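 note: cell growth inhibition measured by a cell viability assay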
Description: SANGER: Inhibition of human MHH-ES-1 cell growth in a cell viability assay.

[28] = tested on: KYSE-270; format: functional, cell-based, Homo sapiens; settings: Homo sapiens, KYSE-270;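 note: cell growth inhibition measured with a viability assay in the human KYSE-270 line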
Description: SANGER: Inhibition of human KYSE-270 cell growth in a cell viability assay.

[29] = tested on: HC-1; format: functional, cell-based; settings: Homo sapiens;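 note: growth inhibition of HC-1 cells measured by a cell viability assay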
Description: SANGER: Inhibition of human HC-1 cell growth in a cell viability assay.

[30] = tested on: TE-12; format: functional, cell-based; settings: Homo sapiens;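 note: growth inhibition of TE-12 cells, read out by a cell viability assay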
Description: SANGER: Inhibition of human TE-12 cell growth in a cell viability assay.

[31] = tested on: KALS-1; format: functional, cell-based, Homo sapiens; settings: Homo sapiens, KALS-1;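 note: growth inhibition of KALS-1 cells, determined with a cell viability assay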
Description: SANGER: Inhibition of human KALS-1 cell growth in a cell viability assay.

[32] = tested on: TYK-nu; format: functional, cell-based, Homo sapiens; settings: Homo sapiens, TYK-nu;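 note: growth inhibition of human TYK-nu cells, read out by a cell viability assay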
Description: SANGER: Inhibition of human TYK-nu cell growth in a cell viability assay.

[33] = tested on: LNCaP-Clone-FGC; format: functional, cell-based, Homo sapiens; settings: Homo sapiens, LNCaP-Clone-FGC
Description: SANGER: Inhibition of human LNCaP-Clone-FGC cell growth in a cell viability assay.

[34] = tested on: LU-139; format: functional, cell-based; settings: Homo sapiens
Description: SANGER: Inhibition of human LU-139 cell growth in a cell viability assay.

[35] = tested on: SNU-387; format: functional, cell-based, Homo sapiens; settings: Homo sapiens, SNU-387
Description: SANGER: Inhibition of human SNU-387 cell growth in a cell viability assay.

[36] = tested on: DoTc2-4510; format: functional, cell-based, Homo sapiens; settings: Homo sapiens, DoTc2-4510
[37] = tested on: SK-MEL-28; format: functional, cell-based; settings: Homo sapiens;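 note: growth inhibition of human SK-MEL-28 cells, read out with a cell viability assay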
Description: SANGER: Inhibition of human SK-MEL-28 cell growth in a cell viability assay.

[38] = tested on: ASPC1; format: functional, cell-based, Homo sapiens; settings: Homo sapiens, ASPC1;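 note: growth inhibition of AsPC-1 cells, read out with a cell viability assay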
Description: SANGER: Inhibition of human AsPC-1 cell growth in a cell viability assay.

[39] = tested on: SW982; format: functional, cell-based; settings: Homo sapiens;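 note: growth inhibition of SW982 cells, read out with a cell viability assay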
Description: SANGER: Inhibition of human SW982 cell growth in a cell viability assay.

[40] = tested on: KYSE-450; format: functional, cell-based; settings: Homo sapiens;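 note: cell growth inhibition measured by a viability assay in human KYSE-450 cells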
Description: SANGER: Inhibition of human KYSE-450 cell growth in a cell viability assay.

[41] = tested on: TGBC1TKB; format: functional, cell-based, Homo sapiens; settings: Homo sapiens, TGBC1TKB;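 note: growth inhibition of TGBC1TKB cells, read out by a cell viability assay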
Description: SANGER: Inhibition of human TGBC1TKB cell growth in a cell viability assay.

[42] = tested on: CAL-12T; format: functional, cell-based, Homo sapiens; settings: Homo sapiens, CAL-12T;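 note: growth inhibition of human CAL-12T cells, read out with a cell viability assay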
Description: SANGER: Inhibition of human CAL-12T cell growth in a cell viability assay.

[43] = tested on: SW13; format: functional, cell-based, Homo sapiens; settings: Homo sapiens, SW13;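 note: IC50 is inhibition of SW13 cell growth, read out with a cell viability assay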
Description: SANGER: Inhibition of human SW13 cell growth in a cell viability assay.

[44] = tested on: Lu-65; format: functional, cell-based; settings: Homo sapiens;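 note: growth inhibition of Lu-65 cancer cells, read out by a cell viability assay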
Description: SANGER: Inhibition of human LU-65 cell growth in a cell viability assay.

[45] = tested on: LB2241-RCC; format: functional, cell-based, Homo sapiens; settings: Homo sapiens, LB2241-RCC;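 note: cell viability assay measuring how strongly the cultured human renal carcinoma line is prevented from growing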
Description: SANGER: Inhibition of human LB2241-RCC cell growth in a cell viability assay.

[46] = tested on: MKN-1; format: functional, cell-based, Homo sapiens; settings: Homo sapiens, MKN-1;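 note: growth inhibition of human MKN1 cells, read out by a cell viability measurement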
Description: SANGER: Inhibition of human MKN1 cell growth in a cell viability assay.

[47] = tested on: SCC-25; format: functional, cell-based, Homo sapiens; settings: Homo sapiens, SCC-25;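 note: growth inhibition of SCC-25 cells, measured with a cell viability assay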
Description: SANGER: Inhibition of human SCC-25 cell growth in a cell viability assay.

[48] = tested on: SCH; format: functional, cell-based, Homo sapiens; settings: Homo sapiens, SCH;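 note: growth inhibition of human SCH cells, read out in a cell viability assay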
Description: SANGER: Inhibition of human SCH cell growth in a cell viability assay.

[49] = tested on: D-392MG; format: functional, cell-based, Homo sapiens; settings: Homo sapiens, D-392MG
[50] = tested on: RT-112; format: functional, cell-based, Homo sapiens; settings: Homo sapiens, RT-112
Description: SANGER: Inhibition of human RT-112 cell growth in a cell viability assay.

[51] = tested on: ATN-1; format: functional, cell-based; settings: Homo sapiens;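 note: growth inhibition of human ATN-1 cells, read out with a cell viability assay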
Description: SANGER: Inhibition of human ATN-1 cell growth in a cell viability assay.

[52] = tested on: ES4; format: functional, cell-based, Homo sapiens; settings: Homo sapiens, ES4;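 note: growth inhibition of human ES4 cells, read out by a cell viability assay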
Description: SANGER: Inhibition of human ES4 cell growth in a cell viability assay.

`CC(=O)O[C@@]12CO[C@@H]1C[C@H](O)[C@@]1(C)C(=O)[C@H](O)C3=C(C)[C@@H](OC(=O)[C@H](O)[C@@H](NC(=O)OC(C)(C)C)c4ccccc4)C[C@@](O)([C@@H](OC(=O)c4ccccc4)[C@H]21)C3(C)C` [DOCETAXEL] gave an IC50 [1] of 0.000902 µM, an IC50 [2] greater than 0.01 µM and an IC50 [3] of 0.000758 µM. It also gave an IC50 [4] of 0.00773 µM, an IC50 [5] of 0.00198 µM and an IC50 [6] greater than 0.01 µM. The IC50 [7] was greater than 0.01 µM, the IC50 [8] was 0.0018 µM and the IC50 [9] was greater than 0.01 µM. For the same compound, the IC50 [10] was 0.00781 µM, the IC50 [11] was 0.00285 µM and the IC50 [12] was 0.0039 µM. It also gave an IC50 [13] of 0.00934 µM, an IC50 [14] of 0.00271 µM and an IC50 [15] of 0.000489 µM. The IC50 [16] was 0.000728 µM, the IC50 [17] was greater than 0.01 µM and the IC50 [18] was greater than 0.01 µM. It also gave an IC50 [19] of 0.000657 µM, an IC50 [20] of 0.00176 µM and an IC50 [21] of 0.000778 µM. It also gave an IC50 [22] of 0.00856 µM, an IC50 [23] greater than 0.01 µM and an IC50 [24] of 0.00084 µM. For the same compound, the IC50 [25] was 0.00178 µM, the IC50 [26] was greater than 0.01 µM and the IC50 [27] was 0.0007 µM. The IC50 [28] was 0.00278 µM, the IC50 [29] was 0.00656 µM and the IC50 [30] was greater than 0.01 µM. The IC50 [31] was 0.00181 µM, the IC50 [32] was 0.00232 µM and the IC50 [33] was 0.0011 µM. The IC50 [34] was greater than 0.01 µM, the IC50 [35] was 0.00261 µM and the IC50 [36] was greater than 0.01 µM. For the same compound, the IC50 [37] was 0.00203 µM, the IC50 [38] was 0.00683 µM and the IC50 [39] was 0.00127 µM. For the same compound, the IC50 [40] was 0.00143 µM, the IC50 [41] was 0.0091 µM and the IC50 [42] was 0.00376 µM. For the same compound, the IC50 [43] was 0.00169 µM, the IC50 [44] was greater than 0.01 µM and the IC50 [45] was 0.00531 µM. It also gave an IC50 [46] greater than 0.01 µM, an IC50 [47] of 0.00068 µM and an IC50 [48] of 0.00818 µM. For the same compound, the IC50 [49] was greater than 0.01 µM, the IC50 [50] was 0.00119 µM and the IC50 [51] was greater than 0.01 µM. It also gave an IC50 [52] of 0.00155 µM.
In the case of `COc1cc([C@@H]2c3cc4c(cc3[C@@H](O[C@@H]3O[C@@H]5CO[C@@H](C)O[C@H]5[C@H](O)[C@H]3O)[C@H]3COC(=O)[C@H]23)OCO4)cc(OC)c1O` [ETOPOSIDE], the IC50 [1] is reported as 11.1 µM, the IC50 [2] is reported as 3.44 µM and the IC50 [3] is reported as 2.08 µM. The IC50 [4] was 10.4 µM, the IC50 [5] was 0.364 µM and the IC50 [6] was greater than 16 µM. The IC50 [7] was greater than 16 µM, the IC50 [8] was 3.27 µM and the IC50 [9] was 0.23 µM. For the same compound, the IC50 [10] was greater than 16 µM, the IC50 [11] was greater than 16 µM and the IC50 [12] was 0.841 µM. The IC50 [13] was 0.232 µM, the IC50 [14] was 1.08 µM and the IC50 [15] was 3.59 µM. For the same compound, the IC50 [16] was 2.33 µM, the IC50 [17] was greater than 16 µM and the IC50 [18] was 15.3 µM. The IC50 [19] was greater than 16 µM, the IC50 [20] was 0.456 µM and the IC50 [21] was greater than 16 µM. The IC50 [22] was 14 µM, the IC50 [23] was greater than 16 µM and the IC50 [24] was 0.566 µM. It also gave an IC50 [25] of 6.53 µM, an IC50 [26] of 8.04 µM and an IC50 [27] of 0.463 µM. For the same compound, the IC50 [28] was 0.252 µM, the IC50 [29] was 0.54 µM and the IC50 [30] was greater than 16 µM. For the same compound, the IC50 [31] was 10.3 µM, the IC50 [32] was 2.41 µM and the IC50 [33] was greater than 16 µM. The IC50 [34] was 4.01 µM, the IC50 [35] was greater than 16 µM and the IC50 [36] was 1.05 µM. It also gave an IC50 [37] greater than 16 µM, an IC50 [38] greater than 16 µM and an IC50 [39] of 0.131 µM. It also gave an IC50 [40] of 3.69 µM, an IC50 [41] greater than 16 µM and an IC50 [42] of 11.1 µM. It also gave an IC50 [43] of 1.8 µM, an IC50 [44] greater than 16 µM and an IC50 [45] greater than 16 µM. It also gave an IC50 [46] of 0.382 µM, an IC50 [47] of 6.63 µM and an IC50 [48] greater than 16 µM. The IC50 [49] was greater than 16 µM, the IC50 [50] was 0.621 µM and the IC50 [51] was 0.204 µM. It also gave an IC50 [52] of 0.521 µM.

Reference: ChEMBL document CHEMBL1201861, “Genomics of Drug Sensitity in Cancer screening data, Wellcome Trust Sanger Institute”
